Laboratory results published in PMC10762068, “Selective blockade of Cav1.2 (α1C) versus Cav1.3 (α1D) L-type calcium channels by the black mamba toxin calciseptine” (Nature Communications, 2024).
Read-outs that look alike come from different tables or passages of the source. Positions of bridges follow the written chain, without caps; N, C: chain ends. No end group written: not given here.

Tests used:
[1] = target: T1, Cav1.2 (Homo sapiens, UniProt Q13936); assay: cell-based; assay type: cell-based; conditions: for L-type Ca2+ current density: mean ± SEM, n=11
T1 construct: expressed in transfected cells; host or cells: HEK-293T
T1 sequence (Q13936 whole entry): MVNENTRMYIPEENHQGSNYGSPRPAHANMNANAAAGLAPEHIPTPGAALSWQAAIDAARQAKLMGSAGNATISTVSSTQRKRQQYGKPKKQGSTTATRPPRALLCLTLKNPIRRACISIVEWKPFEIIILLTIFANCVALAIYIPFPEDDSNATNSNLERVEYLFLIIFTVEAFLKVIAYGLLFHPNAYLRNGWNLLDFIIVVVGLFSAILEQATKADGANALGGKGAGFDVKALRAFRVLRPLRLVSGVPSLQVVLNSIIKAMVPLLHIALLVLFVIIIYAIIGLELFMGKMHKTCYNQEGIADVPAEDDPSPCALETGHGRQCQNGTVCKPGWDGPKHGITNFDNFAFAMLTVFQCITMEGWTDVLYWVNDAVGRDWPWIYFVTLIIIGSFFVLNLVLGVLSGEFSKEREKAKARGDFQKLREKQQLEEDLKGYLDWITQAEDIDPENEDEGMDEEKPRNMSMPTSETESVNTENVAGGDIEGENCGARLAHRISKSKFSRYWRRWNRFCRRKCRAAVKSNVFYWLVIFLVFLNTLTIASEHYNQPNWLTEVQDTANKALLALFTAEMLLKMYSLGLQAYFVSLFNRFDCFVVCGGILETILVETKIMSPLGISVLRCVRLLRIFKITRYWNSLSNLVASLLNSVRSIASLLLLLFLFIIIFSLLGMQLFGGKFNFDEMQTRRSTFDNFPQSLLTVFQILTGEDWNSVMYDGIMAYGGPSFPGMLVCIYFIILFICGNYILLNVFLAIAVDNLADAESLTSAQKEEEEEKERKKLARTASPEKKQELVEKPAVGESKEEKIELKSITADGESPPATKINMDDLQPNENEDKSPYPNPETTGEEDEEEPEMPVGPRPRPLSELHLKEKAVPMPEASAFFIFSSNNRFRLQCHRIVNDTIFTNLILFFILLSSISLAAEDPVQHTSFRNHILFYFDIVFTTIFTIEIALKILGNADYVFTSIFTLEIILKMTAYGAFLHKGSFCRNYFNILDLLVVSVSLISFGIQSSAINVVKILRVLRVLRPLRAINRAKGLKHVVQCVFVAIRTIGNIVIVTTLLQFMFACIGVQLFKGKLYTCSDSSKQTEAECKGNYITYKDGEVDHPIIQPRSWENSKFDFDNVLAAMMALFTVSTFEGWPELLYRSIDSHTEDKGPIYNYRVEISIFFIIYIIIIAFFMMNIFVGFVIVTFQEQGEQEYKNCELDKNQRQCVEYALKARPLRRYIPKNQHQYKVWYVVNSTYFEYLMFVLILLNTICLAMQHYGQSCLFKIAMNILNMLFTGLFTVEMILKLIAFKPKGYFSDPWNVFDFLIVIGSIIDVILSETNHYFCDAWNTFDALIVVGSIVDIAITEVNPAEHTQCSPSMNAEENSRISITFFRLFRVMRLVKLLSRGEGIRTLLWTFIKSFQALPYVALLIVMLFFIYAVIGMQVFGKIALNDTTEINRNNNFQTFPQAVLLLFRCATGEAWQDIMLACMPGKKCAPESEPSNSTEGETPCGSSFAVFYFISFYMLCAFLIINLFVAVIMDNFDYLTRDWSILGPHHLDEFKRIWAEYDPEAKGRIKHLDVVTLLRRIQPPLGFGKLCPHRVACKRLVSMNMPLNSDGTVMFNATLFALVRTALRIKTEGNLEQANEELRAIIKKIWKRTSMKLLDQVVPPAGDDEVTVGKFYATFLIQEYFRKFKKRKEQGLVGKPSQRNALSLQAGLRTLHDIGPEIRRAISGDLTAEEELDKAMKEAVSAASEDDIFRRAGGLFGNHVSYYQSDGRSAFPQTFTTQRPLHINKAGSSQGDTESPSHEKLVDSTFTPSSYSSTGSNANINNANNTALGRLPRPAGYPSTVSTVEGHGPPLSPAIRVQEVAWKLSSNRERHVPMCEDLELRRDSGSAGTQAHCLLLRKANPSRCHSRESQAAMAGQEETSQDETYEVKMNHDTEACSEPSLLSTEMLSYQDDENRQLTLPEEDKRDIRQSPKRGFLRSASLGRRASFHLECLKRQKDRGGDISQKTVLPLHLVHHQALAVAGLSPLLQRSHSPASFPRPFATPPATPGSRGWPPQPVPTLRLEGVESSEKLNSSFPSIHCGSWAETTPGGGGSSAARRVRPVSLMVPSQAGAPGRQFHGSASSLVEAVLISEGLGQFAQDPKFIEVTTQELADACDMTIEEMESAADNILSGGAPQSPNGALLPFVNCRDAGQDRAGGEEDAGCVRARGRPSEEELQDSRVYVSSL
T1 sequence (Q08289 whole entry partner): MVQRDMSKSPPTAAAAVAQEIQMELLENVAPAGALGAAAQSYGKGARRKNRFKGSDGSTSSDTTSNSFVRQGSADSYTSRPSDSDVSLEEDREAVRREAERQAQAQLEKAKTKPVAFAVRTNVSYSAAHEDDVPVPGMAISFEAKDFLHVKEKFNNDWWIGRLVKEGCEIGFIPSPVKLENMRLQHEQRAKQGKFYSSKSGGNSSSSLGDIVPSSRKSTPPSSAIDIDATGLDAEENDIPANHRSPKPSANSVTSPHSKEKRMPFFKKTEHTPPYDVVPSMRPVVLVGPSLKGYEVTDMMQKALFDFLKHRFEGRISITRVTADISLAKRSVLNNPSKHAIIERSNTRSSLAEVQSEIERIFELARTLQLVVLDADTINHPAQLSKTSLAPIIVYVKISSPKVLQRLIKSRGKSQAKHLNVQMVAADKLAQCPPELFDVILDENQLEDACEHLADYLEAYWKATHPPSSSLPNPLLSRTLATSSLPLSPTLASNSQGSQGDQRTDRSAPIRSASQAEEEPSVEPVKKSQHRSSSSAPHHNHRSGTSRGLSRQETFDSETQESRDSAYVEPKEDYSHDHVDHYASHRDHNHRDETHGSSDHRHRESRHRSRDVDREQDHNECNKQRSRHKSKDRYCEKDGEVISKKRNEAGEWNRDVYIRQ
T1 sequence (P54289 25-956 partner limits assumed): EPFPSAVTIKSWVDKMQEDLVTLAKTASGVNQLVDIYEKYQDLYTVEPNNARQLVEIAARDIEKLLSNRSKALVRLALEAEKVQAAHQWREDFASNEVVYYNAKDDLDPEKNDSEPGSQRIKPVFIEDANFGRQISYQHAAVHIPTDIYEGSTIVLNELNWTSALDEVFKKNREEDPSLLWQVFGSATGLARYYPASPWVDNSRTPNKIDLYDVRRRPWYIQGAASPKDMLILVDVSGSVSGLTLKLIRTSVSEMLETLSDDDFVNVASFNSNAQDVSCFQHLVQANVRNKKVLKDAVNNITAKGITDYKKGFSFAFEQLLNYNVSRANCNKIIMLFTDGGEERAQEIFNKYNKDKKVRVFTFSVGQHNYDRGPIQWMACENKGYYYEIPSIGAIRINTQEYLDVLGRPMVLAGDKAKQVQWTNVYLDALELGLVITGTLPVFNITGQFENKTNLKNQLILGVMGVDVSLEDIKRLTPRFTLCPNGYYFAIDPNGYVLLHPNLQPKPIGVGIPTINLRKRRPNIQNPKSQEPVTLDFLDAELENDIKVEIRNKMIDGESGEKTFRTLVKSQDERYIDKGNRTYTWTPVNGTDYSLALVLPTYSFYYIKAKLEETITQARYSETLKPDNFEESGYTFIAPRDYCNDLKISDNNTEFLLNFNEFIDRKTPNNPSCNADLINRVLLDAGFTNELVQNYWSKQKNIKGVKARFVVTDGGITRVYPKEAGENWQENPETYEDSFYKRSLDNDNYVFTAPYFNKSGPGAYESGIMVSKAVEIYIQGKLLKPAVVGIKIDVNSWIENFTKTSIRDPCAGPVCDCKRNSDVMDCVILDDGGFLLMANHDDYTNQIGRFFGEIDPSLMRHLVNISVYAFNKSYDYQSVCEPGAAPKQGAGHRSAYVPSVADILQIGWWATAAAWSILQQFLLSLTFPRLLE
T1 sequence (P54289 957-1103 partner limits assumed): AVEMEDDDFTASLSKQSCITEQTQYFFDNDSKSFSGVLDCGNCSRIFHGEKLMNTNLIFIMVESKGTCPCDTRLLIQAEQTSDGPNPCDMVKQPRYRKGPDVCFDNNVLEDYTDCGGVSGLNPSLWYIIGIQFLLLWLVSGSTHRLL
Protocol: (§1) HEK-293T (RRID:CVCL_2737) were obtained from the European Collection of Authenticated Cell Cultures (ECACC 96121229). The identity of HEK-293T has been confirmed by STR profiling and the cells have been eradicated from mycoplasma at ECACC. We routinely tested the cells for the absence of the mycoplasma contamination. Cells were cultivated at 37 °C in DMEM supplemented with GlutaMax, 10% fetal bovine serum and 1% penicillin/streptomycin (Invitrogen, Fisher Scientific, France). Transfections were performed using jet-PEI (Ozyme, France) with a DNA mix containing either the plasmids that code for Cav1.2-GFP, β2a and α2δ (0.8 µg of each) or either the plasmids that code for Cav1.3 (with and without exon 42a), or Cav2.1, or either Cav2.2 combined with β2a and α2δ (0.8 µg of each supplemented with 0.025 µg of a plasmid coding for GFP). For Cav3.1 expression β2a and α2δ subunits were omitted. Plasmids coding for β2a, α2δ and Cav1.3 were created as described previously. Plasmid coding for Cav1.2-GFP was obtained from Dr. Catalucci[60]. After transfection cells were placed at 30 °C for 2–3 days and dissociated with Versene (Invitrogen, Fisher Scientific, France) and plated at a density of ~35 × 10^3 cells per 35 mm Petri dish for electrophysiological recordings, which were performed the following day.
(§2) Macroscopic currents in HEK-293T cells were recorded at room temperature using an Axopatch 200B or Multiclamp 700B patchclamp amplifier (Molecular Devices, Sunnyvale CA). […] The extracellular solution contained (in mM): 135 NaCl, 20 TEACl, 5 BaCl2, 1 MgCl2, and 10 HEPES (pH adjusted to 7.25 with KOH, ~330 mOsm).
(§3) In all experiments of cellular electrophysiology, we employed synthetized analog of Cas, commercially available at Latoxan (ID: L8109). The native peptide was purified from the venom of Dendroaspis polylepis purchased from Latoxan, as previoulsly described. The pure peptide was obtained after gel filtration, cation exchange and C18 reversed phase chromatography.

[2] = system: isolated perfused hearts from mice; assay: Whole heart contractility and heart rate, Langendorff perfused mouse heart; conditions: native Cas 100 nM, n=5
Protocol: Hearts were isolated from adult male mice anaesthetized with a first intraperitoneal injection of a mixture comprising ketamine (100 mg/kg) and xylazine (10 mg/kg), and a second one of sodium pentobarbital (45 mg/kg; Ceva Santé Animale, France). An intraperitoneal injection of heparin (7500IU/kg; Sanofi Aventis, France) was administered in order to avoid thrombus formation. A thoracotomy was performed and beating hearts were quickly removed and excised into ice-cold modified Krebs-Henseleit buffer containing (mM): NaCl 116; KCl 5; MgSO4 1.1; NaH2P0_4 0.35; NaHCO3 27; CaC1_2 1.8 and glucose 10. Buffer was gassed with 95% O2 and 5% CO2, giving a pH of 7.4 at 37 °C. Before use, the buffer was initially passed through a 0.2 µm filter (Sarstedt, USA). The aorta was cannulated under magnification and hearts were quickly mounted and perfused on the Langendorff perfusion system (Isolated heart system, EMKA Technologies, France). The coronary circulation was perfused at a constant pressure (70 mmHg) over a 1 to 4 ml/min flow range with modified Krebs-Henseleit buffer. During the stabilization phase, the heart was continuously perfused with modified Krebs-Henseleit and the electrocardiogram (ECG) was recorded through Ag/AgCl electrodes positioned on the right atrium and near the apex. Heart temperature was of 37 °C as continuously assessed by a probe positioned on the base of the heart and recorded by using a TH-5 monitoring thermometer (Phymep, USA). LV pressure was continuously measured by a home-made balloon inserted into the LV cavity by the left atrium and connected to the EMKA amplifier. After 20 min of stabilization (baseline), 100 nM Cas was perfused into the heart for 7 min. Then, the modified Krebs-Henseleit buffer was perfused for 1 h allowing to wash the effects of the Cas toxin. During the whole ex vivo protocol, the left ventricular pressure signals were continuously digitized at […] and recorded using an IOX data acquisition system (EMKA Technologies, France). Data were analyzed using ecgAUTOv3.3.3.12 (EMKA technologies) and MATLAB-R2021b (The MathWorks) custom-made script
as §3, with “chromatography. Its measured molecular mass (7036.26 Da average) was in accordance with the mass calculated from sequence data (7036.22 Da).” for “chromatography.”

[3] = system: Cav1.2 (ICav1.2) in isolated adult mouse ventricular myocytes; assay type: cell-based
[4] = system: DHP-sensitive Ca2+ channel in smooth muscle cells of the guinea-pig portal vein; conditions: cell-attached, 90 mM Ba2+ in the pipette; ref Teramoto et al, Pflugers Arch 1996; cited from earlier work
From the text: This po int deserves further specific investigations and addit ional structural studies are required to elucidate the interaction and binding properties between Cas and Cav1.2 channel.

[5] = system: Cav1.3_42; assay: Whole cell recording of ICav1.3-42 in HEK-293T cells; assay type: cell-based; conditions: for L-type Ca2+ current density: mean ± SEM, n=6
Protocol: as §1, §2
as §3, with “chromatography. Its measured molecular mass (7036.26 Da average) was in accordance with the mass calculated from sequence data (7036.22 Da).” for “chromatography.”

[6] = HEK-293T, read-out: inhibition of ICav1.2

## RICYIHKASLPRATKTCVENTCYKMFIRTQREYISERGCGCPTAMWPYQTECCKGDRCNK (disulfide 3-22, 17-39, 41-52, 53-58 (inferred)) [Cas, calciseptine]
[1]; Cas 300 nM, n=6/N=3, holding -60 mV
  effect on outward-going ICav1.2 at +150 mV: almost no effect
[1]; Cas 300 nM, 0 mV, Ctrl -9.25± 2,32
  L-type Ca2+ current density: -3.32± 0.87 pA/pF
[1]; Cas 300 nM, +10 mV, Ctrl -9.90± 1,94
  L-type Ca2+ current density: -3.92± 0.94 pA/pF
[1]; Cas 300 nM, +20 mV, Ctrl -8.05± 1.41
  L-type Ca2+ current density: -3.08± 0.77 pA/pF
[1]; Cas 300 nM, +30 mV, Ctrl -4.66± 0.82
  L-type Ca2+ current density: -1.53± 0.51 pA/pF
[1]; Cas 300 nM, -10 mV, Ctrl -5.72± 1.83
  L-type Ca2+ current density: -1.76± 0.46 pA/pF
[1]; Cas 300 nM, -20 mV, Ctrl -1.41± 0.28
  L-type Ca2+ current density: -0.70± 0.17 pA/pF
[1]; [6]
  inhibition at 0.1 µM: 37%
  inhibition at 0.3 µM: 70%
  inhibition at 1 µM: 80%
[1]; HEK-293T, read-out: inhibition of ICav1.2 (I-V relationship)
  inhibition at 0.3 µM: ~60%
[1]; during Cas application, control −3 ± 2 mV, n = 8, Wilcoxon p = 0.0078
  V0.5 for activation: 3 ± 2 mV
[2]
  episodes of arrhythmia: did not observe episodes of arrhythmia
[2]; perfused 7 min, 37 °C, before 51 ± 3 mmHg, mean ± SEM
  left ventricular (LV) contraction amplitude: 9 ± 2 mmHg
[2]; before 1.7 ± 0.2, mean ± SEM
  contraction velocity (dP/dt max): 0.4 ± 0.1 mmHg/ms
[2]; before 8 ± 2 mmHg, mean ± SEM
  baseline diastolic pressure: 8 ± 3 mmHg
[2]; before 10 ± 1 ms, not affected, mean ± SEM
  relaxation time constant (Ƭ): 13 ± 2 ms
[2]; before 54 ± 1 ms, not affected, mean ± SEM
  time-to-peak interval (time to maximal pressure): 50 ± 3 ms
[2]; before 273 ± 17 ms, p > 0.05, mean ± SEM
  averaged inter-beat (RR) interval: 271 ± 17 ms
[2]; before −1.2 ± 0.1, mean ± SEM
  relaxation velocity (dP/dt min): −0.1 ± 0.1 mmHg/ms
[3]; Cas 100 nM alone or + Nife 3 µM, +10 mV, Ctrl -9.81±1.32, n=9
  L-type Ca2+ current density: -6.14±1.02 pA/pF
[3]; Cas 100 nM alone or + Nife 3 µM, +20 mV, Ctrl -8.04±1.33, n=9
  L-type Ca2+ current density: -5.17±0.93 pA/pF
[3]; Cas 100 nM alone or + Nife 3 µM, +40 mV, Ctrl -3.68±0.68, n=9
  L-type Ca2+ current density: -2.24±0.46 pA/pF
[3]; Cas 100 nM alone or + Nife 3 µM, -10 mV, Ctrl -5.27±0.86, n=9
  L-type Ca2+ current density: -3.45±0.54 pA/pF
[3]; Cas 100 nM alone or + Nife 3 µM, -20 mV, Ctrl -1.26±0.27, n=9
  L-type Ca2+ current density: -1.21±0.20 pA/pF
[3]; Cas 100 nM, 300 nM, 1 µM, voltages −25 mV to +40 mV, holding −55 mV
  reduction of ICav1.2: dose-dependently reduced
[3]; Cas 300 nM alone or + Nife 3 µM, 0 mV, Ctrl -10.51±1.51, n=7
  L-type Ca2+ current density: -3.07±0.59 pA/pF
[3]; Cas 300 nM alone or + Nife 3 µM, +10 mV, Ctrl -10.15±1.38, n=7
  L-type Ca2+ current density: -3.66±0.55 pA/pF
[3]; Cas 300 nM alone or + Nife 3 µM, +20 mV, Ctrl -8.09±1.11, n=7
  L-type Ca2+ current density: -3.32±0.45 pA/pF
[3]; Cas 300 nM alone or + Nife 3 µM, +40 mV, Ctrl -3.36±0.49, n=7
  L-type Ca2+ current density: -1.58±0.23 pA/pF
[3]; Cas 300 nM alone or + Nife 3 µM, -10 mV, Ctrl -6.58±1.29, n=7
  L-type Ca2+ current density: -1.63±0.37 pA/pF
[3]; Cas 300 nM alone or + Nife 3 µM, -20 mV, Ctrl -2.02±0.86, n=7
  L-type Ca2+ current density: -0.52±0.07 pA/pF
[3]; Cas 1 µM alone or + Nife 3 µM, 0 mV, Ctrl -9.85±1.04, n=6
  L-type Ca2+ current density: -2.28±0.33 pA/pF
[3]; Cas 1 µM alone or + Nife 3 µM, +10 mV, Ctrl -8.83±1,09, n=6
  L-type Ca2+ current density: -3.38±0.15 pA/pF
[3]; Cas 1 µM alone or + Nife 3 µM, +20 mV, Ctrl -6.41±0.90, n=6
  L-type Ca2+ current density: -3.38±0.12 pA/pF
[3]; Cas 1 µM alone or + Nife 3 µM, +40 mV, Ctrl -2.75±0.60, n=6
  L-type Ca2+ current density: -1.35±0.11 pA/pF
[3]; Cas 1 µM alone or + Nife 3 µM, -10 mV, Ctrl -7.71±0.98, n=6
  L-type Ca2+ current density: -0.87±0.23 pA/pF
[3]; Cas 1 µM alone or + Nife 3 µM, -20 mV, Ctrl -3.53±0.98, n=6
  L-type Ca2+ current density: -0.34±0.07 pA/pF
[4]
  block of 25-pS and 12-pS channel conductances: Both conductances were blocked
[5]; Cas 300 nM and 1 µM
  reduction of Ca current, long form of Cav1.3 (Cav1.3L): did not observe any reduction
[5]; Cas 300 nM, all voltages tested, at peak p = 0.5696, n=6/N=3
  effect on ICav1.3-42 (I-V relationship): no significant effect
[5]; Cas 300 nM, 0 mV, Ctrl -15.10± 3.34
  L-type Ca2+ current density: -14.76± 4.28 pA/pF
[5]; Cas 300 nM, +10 mV, Ctrl -12.01± 2.36
  L-type Ca2+ current density: -11.09± 3.45 pA/pF
[5]; Cas 300 nM, +20 mV, Ctrl -6.20± 1.35
  L-type Ca2+ current density: -6.12± 2.78 pA/pF
[5]; Cas 300 nM, +30 mV, Ctrl -3.03± 0.66
  L-type Ca2+ current density: -2.96± 2.36 pA/pF
[5]; Cas 300 nM, -10 mV, Ctrl -15.68± 3.76
  L-type Ca2+ current density: -15.81± 4.50 pA/pF
[5]; Cas 300 nM, -20 mV, Ctrl -12.28± 3.31
  L-type Ca2+ current density: -12.95± 3.93 pA/pF
[5]; all concentrations tested (up to 1 µM), holding −60 mV, step 0 mV, 300 nM n=6/N=3, 1 µM n=7/N=3
  reduction of ICav1.3-42: did not record a statistically significant reduction
